# Test results as given in the supplement of paper PMC10307832.
# Tests used:
# Experiment in all cases: relative viability (nuclei count vs DMSO), 5 days (fraction); higher = more cells survive
# 201T = test system: 201T
# Outline: (§1)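 Lung cancer cell lines were seeded in 1536-well plates and dosed by pin tool the next day, with either a single drug or a fixed anchor-drug dose combined with five library-drug doses (not always all listed) spaced in √10 steps. Five days later, one step fixed the cells and stained their nuclei (final 0.05% Triton X-100, 1% formaldehyde, 1 ug/ml Hoechst), and nuclei were counted on 4× images. Relative viability is the nuclei count in treated wells divided by the count in vehicle wells, and each value is the median of duplicate plates.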
# A-427 = test system: A-427
# Outline: as §1
# ABC-1 = test system: ABC-1
# Outline: as §1
# BEN = test system: BEN
# Outline: as §1
# CAL-12T = test system: CAL-12T
# Outline: as §1
# H3255 = test system: H3255
# Outline: as §1
# LC-2-ad = test system: LC-2-ad
# Outline: as §1
# LCLC-97TM1 = test system: LCLC-97TM1
# Outline: as §1
# NCI-H1650 = test system: NCI-H1650
# Outline: as §1
# NCI-H1651 = test system: NCI-H1651
# Outline: as §1
# NCI-H1915 = test system: NCI-H1915
# Outline: as §1
# NCI-H1944 = test system: NCI-H1944
# Outline: as §1
# NCI-H2023 = test system: NCI-H2023
# Outline: as §1
# NCI-H2087 = test system: NCI-H2087
# Outline: as §1
# NCI-H441 = test system: NCI-H441
# Outline: as §1
# NCI-H460 = test system: NCI-H460
# Outline: as §1
# NCI-H520 = test system: NCI-H520
# Outline: as §1
# NCI-H596 = test system: NCI-H596
# Outline: as §1
# NCI-H650 = test system: NCI-H650
# Outline: as §1
# NCI-H661 = test system: NCI-H661
# Outline: as §1
# NCI-H727 = test system: NCI-H727
# Outline: as §1
# PC-3 [JPC-3] = test system: PC-3 [JPC-3]
# Outline: as §1
compound,measurement,setting,value
O=c1cc(N2CCOCC2)oc2c(-c3cccc4c3sc3ccccc34)cccc12 + Cc1cc(Nc2cc(N3CCN(C)CC3)nc(Sc3ccc(NC(=O)C4CC4)cc3)n2)n[nH]1 [Tozasertib] (partner 0.1 µM),relative viability,201T; first compound 0.01 µM,0.93
same,relative viability,201T; first compound 0.03162 µM,0.916
same,relative viability,201T; first compound 0.1 µM,0.983
same,relative viability,201T; first compound 0.3162 µM,0.883
same,relative viability,201T; first compound 1 µM,0.881
same,relative viability,A-427; first compound 0.01 µM,0.232
same,relative viability,A-427; first compound 0.03162 µM,0.201
same,relative viability,A-427; first compound 0.1 µM,0.212
same,relative viability,A-427; first compound 0.3162 µM,0.223
same,relative viability,A-427; first compound 1 µM,0.212
same,relative viability,ABC-1; first compound 0.01 µM,0.186
same,relative viability,ABC-1; first compound 0.03162 µM,0.178
same,relative viability,ABC-1; first compound 0.1 µM,0.222
same,relative viability,ABC-1; first compound 0.3162 µM,0.21
same,relative viability,ABC-1; first compound 1 µM,0.164
same,relative viability,BEN; first compound 0.01 µM,0.487
same,relative viability,BEN; first compound 0.03162 µM,0.469
same,relative viability,BEN; first compound 0.1 µM,0.482
same,relative viability,BEN; first compound 0.3162 µM,0.463
same,relative viability,BEN; first compound 1 µM,0.531
same,relative viability,CAL-12T; first compound 0.01 µM,0.354
same,relative viability,CAL-12T; first compound 0.03162 µM,0.248
same,relative viability,CAL-12T; first compound 0.1 µM,0.347
same,relative viability,CAL-12T; first compound 0.3162 µM,0.277
same,relative viability,CAL-12T; first compound 1 µM,0.288
same,relative viability,H3255; first compound 0.01 µM,0.789
same,relative viability,H3255; first compound 0.03162 µM,0.484
same,relative viability,H3255; first compound 0.1 µM,0.709
same,relative viability,H3255; first compound 0.3162 µM,0.593
same,relative viability,H3255; first compound 1 µM,0.606
same,relative viability,LC-2-ad; first compound 0.01 µM,0.486
same,relative viability,LC-2-ad; first compound 0.03162 µM,0.46
same,relative viability,LC-2-ad; first compound 0.1 µM,0.478
same,relative viability,LC-2-ad; first compound 0.3162 µM,0.443
same,relative viability,LC-2-ad; first compound 1 µM,0.445
same,relative viability,LCLC-97TM1; first compound 0.01 µM,0.262
same,relative viability,LCLC-97TM1; first compound 0.03162 µM,0.246
same,relative viability,LCLC-97TM1; first compound 0.1 µM,0.28
same,relative viability,LCLC-97TM1; first compound 0.3162 µM,0.214
same,relative viability,LCLC-97TM1; first compound 1 µM,0.219
same,relative viability,NCI-H1650; first compound 0.01 µM,0.383
same,relative viability,NCI-H1650; first compound 0.03162 µM,0.416
same,relative viability,NCI-H1650; first compound 0.1 µM,0.392
same,relative viability,NCI-H1650; first compound 0.3162 µM,0.373
same,relative viability,NCI-H1650; first compound 1 µM,0.352
same,relative viability,NCI-H1651; first compound 0.01 µM,0.687
same,relative viability,NCI-H1651; first compound 0.03162 µM,0.848
same,relative viability,NCI-H1651; first compound 0.1 µM,0.844
same,relative viability,NCI-H1651; first compound 0.3162 µM,0.72
same,relative viability,NCI-H1651; first compound 1 µM,0.751
same,relative viability,NCI-H1915; first compound 0.01 µM,0.419
same,relative viability,NCI-H1915; first compound 0.03162 µM,0.438
same,relative viability,NCI-H1915; first compound 0.1 µM,0.485
same,relative viability,NCI-H1915; first compound 0.3162 µM,0.456
same,relative viability,NCI-H1915; first compound 1 µM,0.422
same,relative viability,NCI-H1944; first compound 0.01 µM,0.246
same,relative viability,NCI-H1944; first compound 0.03162 µM,0.249
same,relative viability,NCI-H1944; first compound 0.1 µM,0.241
same,relative viability,NCI-H1944; first compound 0.3162 µM,0.245
same,relative viability,NCI-H1944; first compound 1 µM,0.244
same,relative viability,NCI-H2023; first compound 0.01 µM,0.353
same,relative viability,NCI-H2023; first compound 0.03162 µM,0.402
same,relative viability,NCI-H2023; first compound 0.1 µM,0.438
same,relative viability,NCI-H2023; first compound 0.3162 µM,0.359
same,relative viability,NCI-H2023; first compound 1 µM,0.373
same,relative viability,NCI-H2087; first compound 0.01 µM,0.289
same,relative viability,NCI-H2087; first compound 0.03162 µM,0.247
same,relative viability,NCI-H2087; first compound 0.1 µM,0.297
same,relative viability,NCI-H2087; first compound 0.3162 µM,0.226
same,relative viability,NCI-H2087; first compound 1 µM,0.25
same,relative viability,NCI-H441; first compound 0.01 µM,0.671
same,relative viability,NCI-H441; first compound 0.03162 µM,0.713
same,relative viability,NCI-H441; first compound 0.1 µM,0.692
same,relative viability,NCI-H441; first compound 0.3162 µM,0.658
same,relative viability,NCI-H441; first compound 1 µM,0.719
same,relative viability,NCI-H460; first compound 0.01 µM,0.342
same,relative viability,NCI-H460; first compound 0.03162 µM,0.479
same,relative viability,NCI-H460; first compound 0.1 µM,0.511
same,relative viability,NCI-H460; first compound 0.3162 µM,0.417
same,relative viability,NCI-H460; first compound 1 µM,0.465
same,relative viability,NCI-H520; first compound 0.01 µM,0.38
same,relative viability,NCI-H520; first compound 0.03162 µM,0.409
same,relative viability,NCI-H520; first compound 0.1 µM,0.418
same,relative viability,NCI-H520; first compound 0.3162 µM,0.438
same,relative viability,NCI-H520; first compound 1 µM,0.442
same,relative viability,NCI-H596; first compound 0.01 µM,0.834
same,relative viability,NCI-H596; first compound 0.03162 µM,0.939
same,relative viability,NCI-H596; first compound 0.1 µM,0.921
same,relative viability,NCI-H596; first compound 0.3162 µM,0.865
same,relative viability,NCI-H596; first compound 1 µM,1.03
same,relative viability,NCI-H650; first compound 0.03162 µM,0.763
same,relative viability,NCI-H650; first compound 0.1 µM,0.701
same,relative viability,NCI-H650; first compound 0.3162 µM,0.803
same,relative viability,NCI-H650; first compound 1 µM,0.704
same,relative viability,NCI-H661; first compound 0.01 µM,0.367
same,relative viability,NCI-H661; first compound 0.03162 µM,0.356
same,relative viability,NCI-H661; first compound 0.1 µM,0.335
same,relative viability,NCI-H661; first compound 0.3162 µM,0.36
same,relative viability,NCI-H661; first compound 1 µM,0.362
same,relative viability,NCI-H727; first compound 0.01 µM,0.607
same,relative viability,NCI-H727; first compound 0.03162 µM,0.644
same,relative viability,NCI-H727; first compound 0.1 µM,0.673
same,relative viability,NCI-H727; first compound 0.3162 µM,0.632
same,relative viability,NCI-H727; first compound 1 µM,0.673
same,relative viability,PC-3 [JPC-3]; first compound 0.01 µM,0.855
same,relative viability,PC-3 [JPC-3]; first compound 0.03162 µM,0.884
same,relative viability,PC-3 [JPC-3]; first compound 0.1 µM,0.879
same,relative viability,PC-3 [JPC-3]; first compound 0.3162 µM,0.842
same,relative viability,PC-3 [JPC-3]; first compound 1 µM,0.852
